How the values were obtained:
barnyard grass [1] = assay: Test Example 3: herbicidal effect by foliage application, Wagner pot (Table 18, symbol H); type: in vivo, barnyard grass (Echinochloa crus-galli); conditions: 320 g/ha
Procedure, shortened: (§1)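 Plants were sown in alluvial soil held under 0.1–0.5 cm standing water and grown 14 days in a greenhouse at 25–30 °C. An emulsifiable formulation, water-diluted to the set dose, was then sprayed onto the foliage, and effects were scored three weeks later using previously defined criteria.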

wild oat [2] = assay: Test Example 4: herbicidal effect by soil treatment (Table 19, symbol I); type: in vivo, wild oat (Avena fatua); conditions: amount of applied herbicide 320 g/ha
Procedure, shortened: (§2)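 Step 1: sow seeds in sterilized diluvial soil, cover ~1.5 cm. Step 2: spray diluted emulsion onto soil surface at predetermined rate. Step 3: greenhouse, 25–30° C, three weeks. Step 4: grade effect on each plant by earlier criteria.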

green foxtail [3] = assay: Test Example 5: herbicidal effect by foliage application, plastic box (Table 20, symbol G); type: in vivo, green foxtail (Setaria viridis); conditions: foliage application, 320 g/ha, three weeks after application
Procedure, shortened: (§3)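 Foliar spray test: emulsion formulation diluted in water to a set application rate, sprayed onto 14-day-old plants raised in diluvial soil at 25° C to 30° C under glass. Both herbicidal effect and crop effect rated visually three weeks later.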

Chinese sprangletop = assay: Test Example 3: herbicidal effect by foliage application, Wagner pot (Table 18, symbol D); type: in vivo, chinese sprangletop (Leptochloa chinensis); conditions: 320 g/ha
Procedure, shortened: as §1

redroot pigweed [4] = assay: Test Example 5: herbicidal effect by foliage application, plastic box (Table 20, symbol N); type: in vivo, redroot pigweed (Amaranthus retroflexus); conditions: foliage application, 320 g/ha, three weeks after application
Procedure, shortened: as §3

velvetleaf [5] = assay: Test Example 4: herbicidal effect by soil treatment (Table 19, symbol M); type: in vivo, velvetleaf (Abutilon theophrasti); conditions: amount of applied herbicide 320 g/ha
Procedure, shortened: as §2

velvetleaf [6] = assay: Test Example 5: herbicidal effect by foliage application, plastic box (Table 20, symbol M); type: in vivo, velvetleaf (Abutilon theophrasti); conditions: foliage application, 320 g/ha, three weeks after application
Procedure, shortened: as §3

chickweed [7] = assay: Test Example 5: herbicidal effect by foliage application, plastic box (Table 20, symbol P); type: in vivo, common chickweed (Stellaria media); conditions: foliage application, 320 g/ha, three weeks after application
Procedure, shortened: as §3

barnyard grass [8] = assay: Test Example 4: herbicidal effect by soil treatment (Table 19, symbol H); type: in vivo, barnyard grass (Echinochloa crus-galli); conditions: amount of applied herbicide 320 g/ha
Procedure, shortened: as §2

false cleavers [9] = assay: Test Example 5: herbicidal effect by foliage application, plastic box (Table 20, symbol Q); type: in vivo, false cleavers (Galium spurium); conditions: foliage application, 320 g/ha, three weeks after application
Procedure, shortened: as §3

Italian ryegrass [10] = assay: Test Example 4: herbicidal effect by soil treatment (Table 19, symbol K); type: in vivo, Italian ryegrass (Lolium multiflorum); conditions: amount of applied herbicide 320 g/ha
Procedure, shortened: as §2

green foxtail [11] = assay: Test Example 4: herbicidal effect by soil treatment (Table 19, symbol G); type: in vivo, green foxtail (Setaria viridis); conditions: amount of applied herbicide 320 g/ha
Procedure, shortened: as §2

persian speedwell [12] = assay: Test Example 5: herbicidal effect by foliage application, plastic box (Table 20, symbol R); type: in vivo, Persian speedwell (Veronica persica); conditions: foliage application, 320 g/ha, three weeks after application
Procedure, shortened: as §3

rice flat sedge = assay: Test Example 3: herbicidal effect by foliage application, Wagner pot (Table 18, symbol E); type: in vivo, rice flat sedge (Cyperus iria); conditions: 320 g/ha
Procedure, shortened: as §1

lambsquarters [13] = assay: Test Example 4: herbicidal effect by soil treatment (Table 19, symbol O); type: in vivo, lambsquarters (Chenopodium album); conditions: amount of applied herbicide 320 g/ha
Procedure, shortened: as §2

windgrass [14] = assay: Test Example 4: herbicidal effect by soil treatment (Table 19, symbol L); type: in vivo, windgrass (Apera spica-venti); conditions: amount of applied herbicide 320 g/ha
Procedure, shortened: as §2

chickweed [15] = assay: Test Example 4: herbicidal effect by soil treatment (Table 19, symbol P); type: in vivo, common chickweed (Stellaria media); conditions: amount of applied herbicide 320 g/ha
Procedure, shortened: as §2

southern crabgrass [16] = assay: Test Example 4: herbicidal effect by soil treatment (Table 19, symbol F); type: in vivo, southern crabgrass (Digitaria ciliaris); conditions: amount of applied herbicide 320 g/ha
Procedure, shortened: as §2

windgrass [17] = assay: Test Example 5: herbicidal effect by foliage application, plastic box (Table 20, symbol L); type: in vivo, windgrass (Apera spica-venti); conditions: foliage application, 320 g/ha, three weeks after application
Procedure, shortened: as §3

persian speedwell [18] = assay: Test Example 4: herbicidal effect by soil treatment (Table 19, symbol R); type: in vivo, Persian speedwell (Veronica persica); conditions: amount of applied herbicide 320 g/ha
Procedure, shortened: as §2

false cleavers [19] = assay: Test Example 4: herbicidal effect by soil treatment (Table 19, symbol Q); type: in vivo, false cleavers (Galium spurium); conditions: amount of applied herbicide 320 g/ha
Procedure, shortened: as §2

lambsquarters [20] = assay: Test Example 5: herbicidal effect by foliage application, plastic box (Table 20, symbol O); type: in vivo, lambsquarters (Chenopodium album); conditions: foliage application, 320 g/ha, three weeks after application
Procedure, shortened: as §3

wild oat [21] = assay: Test Example 5: herbicidal effect by foliage application, plastic box (Table 20, symbol I); type: in vivo, wild oat (Avena fatua); conditions: foliage application, 320 g/ha, three weeks after application
Procedure, shortened: as §3

redroot pigweed [22] = assay: Test Example 4: herbicidal effect by soil treatment (Table 19, symbol N); type: in vivo, redroot pigweed (Amaranthus retroflexus); conditions: amount of applied herbicide 320 g/ha
Procedure, shortened: as §2

blackgrass [23] = assay: Test Example 4: herbicidal effect by soil treatment (Table 19, symbol J); type: in vivo, blackgrass (Alopecurus myosuroides); conditions: amount of applied herbicide 320 g/ha
Procedure, shortened: as §2

Italian ryegrass [24] = assay: Test Example 5: herbicidal effect by foliage application, plastic box (Table 20, symbol K); type: in vivo, Italian ryegrass (Lolium multiflorum); conditions: foliage application, 320 g/ha, three weeks after application
Procedure, shortened: as §3

blackgrass [25] = assay: Test Example 5: herbicidal effect by foliage application, plastic box (Table 20, symbol J); type: in vivo, blackgrass (Alopecurus myosuroides); conditions: foliage application, 320 g/ha, three weeks after application
Procedure, shortened: as §3

southern crabgrass [26] = assay: Test Example 5: herbicidal effect by foliage application, plastic box (Table 20, symbol F); type: in vivo, southern crabgrass (Digitaria ciliaris); conditions: foliage application, 320 g/ha, three weeks after application
Procedure, shortened: as §3

barnyard grass [27] = assay: Test Example 5: herbicidal effect by foliage application, plastic box (Table 20, symbol H); type: in vivo, barnyard grass (Echinochloa crus-galli); conditions: foliage application, 320 g/ha, three weeks after application
Procedure, shortened: as §3

## Cc1nn(C)c(=O)c(-c2c(-c3ccc(F)c(F)c3)sc3ccccc23)c1O [1-046]
Barnyard grass [1]
  herbicidal effect on H (barnyard grass), rating 0-5: 3 (Herbicidal rate of 40% or more and less than 70%)
Wild oat [2]
  herbicidal effect rating, I: wild oat: 0 (Herbicidal rate of 5% or less (almost no effect))
Green foxtail [3]
  herbicidal effect grade, G: green foxtail: 4 (Herbicidal rate of 70% or more and less than 90%)
Chinese sprangletop
  herbicidal effect on D (Chinese sprangletop), rating 0-5: 0 (Herbicidal rate of 5% or less (almost no effect))
Redroot pigweed [4]
  herbicidal effect grade, N: redroot pigweed: 5 (Herbicidal rate of 90% or more (almost completely withered))
Velvetleaf [5]
  herbicidal effect rating, M: velvetleaf: 0 (Herbicidal rate of 5% or less (almost no effect))
Velvetleaf [6]
  herbicidal effect grade, M: velvetleaf: 5 (Herbicidal rate of 90% or more (almost completely withered))
Chickweed [7]
  herbicidal effect grade, P: chickweed: 5 (Herbicidal rate of 90% or more (almost completely withered))
Barnyard grass [8]
  herbicidal effect rating, H: barnyard grass: 0 (Herbicidal rate of 5% or less (almost no effect))
False cleavers [9]
  herbicidal effect grade, Q: false cleavers: 5 (Herbicidal rate of 90% or more (almost completely withered))
Italian ryegrass [10]
  herbicidal effect rating, K: Italian ryegrass: 0 (Herbicidal rate of 5% or less (almost no effect))
Green foxtail [11]
  herbicidal effect rating, G: green foxtail: 0 (Herbicidal rate of 5% or less (almost no effect))
Persian speedwell [12]
  herbicidal effect grade, R: persian speedwell: 5 (Herbicidal rate of 90% or more (almost completely withered))
Rice flat sedge
  herbicidal effect on E (rice flat sedge), rating 0-5: 5 (Herbicidal rate of 90% or more (almost completely withered))
Lambsquarters [13]
  herbicidal effect rating, O: lambsquarters: 0 (Herbicidal rate of 5% or less (almost no effect))
Windgrass [14]
  herbicidal effect rating, L: windgrass: 0 (Herbicidal rate of 5% or less (almost no effect))
Chickweed [15]
  herbicidal effect rating, P: chickweed: 5 (Herbicidal rate of 90% or more (almost completely withered))
Southern crabgrass [16]
  herbicidal effect rating, F: southern crabgrass: 0 (Herbicidal rate of 5% or less (almost no effect))
Windgrass [17]
  herbicidal effect grade, L: windgrass: 0 (Herbicidal rate of 5% or less (almost no effect))
Persian speedwell [18]
  herbicidal effect rating, R: persian speedwell: 5 (Herbicidal rate of 90% or more (almost completely withered))
False cleavers [19]
  herbicidal effect rating, Q: false cleavers: 5 (Herbicidal rate of 90% or more (almost completely withered))
Lambsquarters [20]
  herbicidal effect grade, O: lambsquarters: 4 (Herbicidal rate of 70% or more and less than 90%)
Wild oat [21]
  herbicidal effect grade, I: wild oat: 3 (Herbicidal rate of 40% or more and less than 70%)
Redroot pigweed [22]
  herbicidal effect rating, N: redroot pigweed: 0 (Herbicidal rate of 5% or less (almost no effect))
Blackgrass [23]
  herbicidal effect rating, J: blackgrass: 0 (Herbicidal rate of 5% or less (almost no effect))
Italian ryegrass [24]
  herbicidal effect grade, K: Italian ryegrass: 3 (Herbicidal rate of 40% or more and less than 70%)
Blackgrass [25]
  herbicidal effect grade, J: blackgrass: 0 (Herbicidal rate of 5% or less (almost no effect))
Southern crabgrass [26]
  herbicidal effect grade, F: southern crabgrass: 4 (Herbicidal rate of 70% or more and less than 90%)
Barnyard grass [27]
  herbicidal effect grade, H: barnyard grass: 4 (Herbicidal rate of 70% or more and less than 90%)

## CCCC(=O)Oc1c(C)nn(C)c(=O)c1-c1c(-c2ccc(OCC)cc2)sc2cc(OC)ccc12 [3-073]
Wild oat [2]
  I: wild oat, herbicidal effect grade: 0 (Herbicidal rate of 5% or less (almost no effect))
Green foxtail [3]
  G: green foxtail, herbicidal effect grade: 0 (Herbicidal rate of 5% or less (almost no effect))
Redroot pigweed [4]
  N: redroot pigweed, herbicidal effect grade: 3 (Herbicidal rate of 40% or more and less than 70%)
Velvetleaf [5]
  M: velvetleaf, herbicidal effect grade: 0 (Herbicidal rate of 5% or less (almost no effect))
Velvetleaf [6]
  M: velvetleaf, herbicidal effect grade: 3 (Herbicidal rate of 40% or more and less than 70%)
Chickweed [7]
  P: chickweed, herbicidal effect grade: 5 (Herbicidal rate of 90% or more (almost completely withered))
Barnyard grass [8]
  H: barnyard grass, herbicidal effect grade: 3 (Herbicidal rate of 40% or more and less than 70%)
False cleavers [9]
  Q: false cleavers, herbicidal effect grade: 4 (Herbicidal rate of 70% or more and less than 90%)
Italian ryegrass [10]
  K: Italian ryegrass, herbicidal effect grade: 0 (Herbicidal rate of 5% or less (almost no effect))
Green foxtail [11]
  G: green foxtail, herbicidal effect grade: 3 (Herbicidal rate of 40% or more and less than 70%)
Persian speedwell [12]
  R: persian speedwell, herbicidal effect grade: 5 (Herbicidal rate of 90% or more (almost completely withered))
Lambsquarters [13]
  O: lambsquarters, herbicidal effect grade: 3 (Herbicidal rate of 40% or more and less than 70%)
Windgrass [14]
  L: windgrass, herbicidal effect grade: 0 (Herbicidal rate of 5% or less (almost no effect))
Chickweed [15]
  P: chickweed, herbicidal effect grade: 4 (Herbicidal rate of 70% or more and less than 90%)
Southern crabgrass [16]
  F: southern crabgrass, herbicidal effect grade: 3 (Herbicidal rate of 40% or more and less than 70%)
Windgrass [17]
  L: windgrass, herbicidal effect grade: 0 (Herbicidal rate of 5% or less (almost no effect))
Persian speedwell [18]
  R: persian speedwell, herbicidal effect grade: 4 (Herbicidal rate of 70% or more and less than 90%)
False cleavers [19]
  Q: false cleavers, herbicidal effect grade: 2 (Herbicidal rate of 20% or more and less than 40%)
Lambsquarters [20]
  O: lambsquarters, herbicidal effect grade: 2 (Herbicidal rate of 20% or more and less than 40%)
Wild oat [21]
  I: wild oat, herbicidal effect grade: 0 (Herbicidal rate of 5% or less (almost no effect))
Redroot pigweed [22]
  N: redroot pigweed, herbicidal effect grade: 4 (Herbicidal rate of 70% or more and less than 90%)
Blackgrass [23]
  J: blackgrass, herbicidal effect grade: 0 (Herbicidal rate of 5% or less (almost no effect))
Italian ryegrass [24]
  K: Italian ryegrass, herbicidal effect grade: 0 (Herbicidal rate of 5% or less (almost no effect))
Blackgrass [25]
  J: blackgrass, herbicidal effect grade: 0 (Herbicidal rate of 5% or less (almost no effect))
Southern crabgrass [26]
  F: southern crabgrass, herbicidal effect grade: 2 (Herbicidal rate of 20% or more and less than 40%)
Barnyard grass [27]
  H: barnyard grass, herbicidal effect grade: 0 (Herbicidal rate of 5% or less (almost no effect))

Reference: patent US20230085307A1, “PYRIDAZINONE COMPOUND AND HERBICIDE” (NISSAN CHEMICAL CORPORATION, priority 2019, published 2023)
